# Activity calls are given as the source filed them. No cut-off for these calls is given here.
# Experiments:
# SUD4 = assay: Antiproliferative activity against human SU-DHL-4 cells assessed as cell growth inhibition measured after 72 hrs by MTT assay; type: functional, cell-based; details: SU-DHL-4, 72 h
# [1] = Tmax in Sprague-Dawley rat at 5 mg/kg, po measured upto 24 hrs by LC-MS/MS analysis; type: ADME, organism-based; details: in vivo
# [2] = Tmax in Sprague-Dawley rat at 10 mg/kg, po measured upto 24 hrs by LC-MS/MS analysis; type: ADME, organism-based; details: in vivo
# [3] = Tmax in Sprague-Dawley rat at 2 mg/kg, iv measured upto 24 hrs by LC-MS/MS analysis; type: ADME, organism-based; details: in vivo
# [4] = AUC(0 to t) in Sprague-Dawley rat at 10 mg/kg, po measured upto 24 hrs by LC-MS/MS analysis; type: ADME, organism-based; set-up: dose 10 mg/kg, time < 24 hrs, route po; details: in vivo
# [5] = Half life in Sprague-Dawley rat at 5 mg/kg, po measured upto 24 hrs by LC-MS/MS analysis; type: ADME, organism-based; details: in vivo
# [6] = Half life in Sprague-Dawley rat at 10 mg/kg, po measured upto 24 hrs by LC-MS/MS analysis; type: ADME, organism-based; details: in vivo
# [7] = Clearance in Sprague-Dawley rat at 5 mg/kg, po measured upto 24 hrs by LC-MS/MS analysis; type: ADME, organism-based; details: in vivo
# [8] = Clearance in Sprague-Dawley rat at 5 mg/kg, iv measured upto 24 hrs by LC-MS/MS analysis; type: ADME, organism-based; details: in vivo
# [9] = Volume of distribution at steady state in Sprague-Dawley rat at 2 mg/kg, iv measured upto 24 hrs by LC-MS/MS analysis; type: ADME, organism-based; details: in vivo, read-out: Vdss
# [10] = Oral bioavailability in Sprague-Dawley rat at 10 mg/kg measured upto 24 hrs by LC-MS/MS analysis; type: ADME, organism-based; details: in vivo
# SU-DHL-6 [11] = assay: Induction of cell cycle arrest in human SU-DHL-6 cells assessed as accumulation of cells at S phase at 0.5 uM incubated for 24 hrs by PI staining based FACScan flow cytometry analysis (reference value: 24.18 %); type: functional
# SU-DHL-6 [12] = assay: Induction of cell cycle arrest in human SU-DHL-6 cells assessed as accumulation of cells at S phase at 0.5 uM incubated for 24 hrs in presence of ibrutinib by PI staining based flow cytometry analysis (reference value: 24.18 %); type: functional
# SU-DHL-6 [13] = assay: Induction of cell cycle arrest in human SU-DHL-6 cells assessed as accumulation of cells at G2/M phase at 0.5 uM incubated for 24 hrs in presence of ibrutinib by PI staining based FACScan flow cytometry analysis (reference value: 20.21 %); type: functional
# DOHH-2 [14] = assay: Induction of cell cycle arrest in human DOHH-2 cells assessed as accumulation of cells at S phase at 0.5 uM incubated for 24 hrs by PI staining based FACScan flow cytometry analysis (reference value: 55.11 %); type: functional
# DOHH-2 [15] = assay: Induction of cell cycle arrest in human DOHH-2 cells assessed as accumulation of cells at S phase at 0.5 uM incubated for 24 hrs in presence of ibrutinib by PI staining based flow cytometry analysis (reference value: 55.11 %); type: functional
# DOHH-2 [16] = assay: Induction of cell cycle arrest in human DOHH-2 cells assessed as accumulation of cells at G2/M phase at 0.5 uM incubated for 24 hrs in presence of ibrutinib by PI staining based flow cytometry analysis (reference value: 21.42 %); type: functional
# SU-DHL-6 [17] = assay: Induction of apoptosis in human SU-DHL-6 cells assessed as viable cells at 1.5 uM incubated for 48 hrs by annexin V-FITC and PI staining based flow cytometry analysis (reference value: 87.0 %); type: functional; details: read-out: Activity
# SU-DHL-6 [18] = assay: Induction of apoptosis in human SU-DHL-6 cells assessed as late apoptotic cells at 1.5 uM incubated for 48 hrs by annexin V-FITC and PI staining based flow cytometry analysis (reference value: 3.88 %); type: functional
# SU-DHL-6 [19] = assay: Induction of apoptosis in human SU-DHL-6 cells assessed as viable cells at 1.5 uM incubated for 48 hrs in presence of ibrutinib by annexin V-FITC and PI staining based flow cytometry analysis (reference value: 87.0 %); type: functional; details: read-out: Activity
# SU-DHL-6 [20] = assay: Induction of apoptosis in human SU-DHL-6 cells assessed as late apoptotic cells at 1.5 uM incubated for 48 hrs in presence of ibrutinib by annexin V-FITC and PI staining based flow cytometry analysis (reference value: 3.88 %); type: functional
# DOHH-2 [21] = assay: Induction of apoptosis in human DOHH-2 cells assessed as viable cells at 2 uM incubated for 48 hrs by annexin V-FITC and PI staining based flow cytometry analysis (reference value: 95.4 %); type: functional; details: read-out: Activity
# DOHH-2 [22] = assay: Induction of apoptosis in human DOHH-2 cells assessed as viable cells at 2 uM incubated for 48 hrs in presence of ibrutinib by annexin V-FITC and PI staining based flow cytometry analysis (reference value: 95.4 %); type: functional; details: read-out: Activity
# DOHH-2 [23] = assay: Induction of apoptosis in human DOHH-2 cells assessed as late apoptotic cells at 2 uM incubated for 48 hrs in presence of ibrutinib by annexin V-FITC and PI staining based flow cytometry analysis (reference value: 2.20 %); type: functional
# DOHH-2 [24] = assay: Induction of apoptosis in human DOHH-2 cells assessed as necrotic cells at 2 uM incubated for 48 hrs in presence of ibrutinib by annexin V-FITC and PI staining based flow cytometry analysis (Rvb =0.29 %); type: functional
# [25] = Binding affinity to N-terminal His6-tagged recombinant full length human PI3K expressed in baculovirus infected Sf21 insect cells at 10 uM in presence of [gamma-33ATP] by scintillation counting based radiometry assay relative to control
# Homo sapiens = species on record: Homo sapiens; assay: Selectivity ratio of IC50 for N-terminal His6-tagged recombinant full length human PI3Kalpha expressed in baculovirus infected Sf21 insect cells to IC50 for N-terminal His6-tagged recombinant full length human PI3Kgamma expressed in baculovirus infected Sf21 insect cells
# [26] = Selectivity ratio of IC50 for human 786-O cells over expressing PI3Kbeta to IC50 for human SU-DHL-6 cells; type: functional
# [27] = Selectivity ratio of IC50 for human SKOV-3 cells over expressing PI3Kalpha to IC50 for human SUDHL-6 cells; type: functional
# SU-DHL-6 [28] = assay: Antitumor activity against human SU-DHL-6 cells xenografted in po dosed NOD/SCID mouse assessed as tumor volume suppression measured every 2 days; type: functional, organism-based; details: time 2.0 day, DDE = dose-dependent effect
# SU-DHL-6 [29] = assay: Antitumor activity against human SU-DHL-6 cells xenografted in NOD/SCID mouse assessed as tumor growth inhibition at 10 mg/kg, po measured every 2 days in presence of ibrutinib; type: functional; details: SU-DHL-6, 48 h, time 2 day, read-out: TGI
# SU-DHL-6 [30] = assay: Antitumor activity against human SU-DHL-6 cells xenografted in NOD/SCID mouse assessed as reduction in tumor weight at 10 mg/kg, po measured every 2 days in presence of ibrutinib; type: functional, organism-based; details: time 2.0 day
# [31] = target: Phosphatidylinositol 4,5-bisphosphate 3-kinase catalytic subunit gamma isoform (Homo sapiens, UniProt P48736); assay: Inhibition of N-terminal His6-tagged recombinant full length human PI3Kgamma expressed in baculovirus infected Sf21 insect cells incubated for 30 mins by HTRF assay
# [32] = target: Phosphatidylinositol 4,5-bisphosphate 3-kinase catalytic subunit beta isoform (Homo sapiens, UniProt P42338); assay: Inhibition of N-terminal His6-tagged recombinant full length human PI3Kbeta expressed in baculovirus infected Sf21 insect cells incubated for 30 mins by HTRF assay
# Chain of Phosphatidylinositol 4,5-bisphosphate 3-kinase catalytic subunit beta isoform (P42338 whole entry, canonical isoform): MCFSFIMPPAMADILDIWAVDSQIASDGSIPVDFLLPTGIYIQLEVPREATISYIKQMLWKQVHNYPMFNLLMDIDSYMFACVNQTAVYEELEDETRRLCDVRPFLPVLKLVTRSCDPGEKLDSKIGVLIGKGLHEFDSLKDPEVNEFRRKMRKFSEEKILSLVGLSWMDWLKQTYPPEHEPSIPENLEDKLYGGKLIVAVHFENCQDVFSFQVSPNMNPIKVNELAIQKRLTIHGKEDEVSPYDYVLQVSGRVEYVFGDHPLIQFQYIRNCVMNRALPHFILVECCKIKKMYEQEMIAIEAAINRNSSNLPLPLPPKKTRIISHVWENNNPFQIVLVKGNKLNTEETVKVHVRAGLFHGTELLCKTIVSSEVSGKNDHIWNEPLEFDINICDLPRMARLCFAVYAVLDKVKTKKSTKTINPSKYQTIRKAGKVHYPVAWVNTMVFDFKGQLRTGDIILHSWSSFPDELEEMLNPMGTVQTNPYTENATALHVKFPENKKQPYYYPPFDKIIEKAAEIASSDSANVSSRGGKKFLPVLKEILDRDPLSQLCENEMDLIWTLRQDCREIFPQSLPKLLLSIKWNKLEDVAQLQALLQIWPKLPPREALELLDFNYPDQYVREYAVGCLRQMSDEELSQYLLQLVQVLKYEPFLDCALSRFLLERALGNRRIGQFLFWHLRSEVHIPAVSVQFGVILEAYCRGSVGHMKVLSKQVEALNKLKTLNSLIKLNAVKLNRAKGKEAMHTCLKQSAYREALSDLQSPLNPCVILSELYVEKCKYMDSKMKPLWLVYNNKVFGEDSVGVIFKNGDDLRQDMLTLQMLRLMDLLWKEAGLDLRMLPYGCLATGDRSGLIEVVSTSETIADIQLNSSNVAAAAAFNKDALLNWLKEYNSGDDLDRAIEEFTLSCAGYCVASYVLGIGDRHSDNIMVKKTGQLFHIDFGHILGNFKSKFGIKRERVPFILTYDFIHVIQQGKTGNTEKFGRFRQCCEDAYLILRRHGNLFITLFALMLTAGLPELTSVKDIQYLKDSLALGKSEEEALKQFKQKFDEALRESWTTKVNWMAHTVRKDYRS
# Chain of Phosphatidylinositol 4,5-bisphosphate 3-kinase catalytic subunit gamma isoform (P48736 whole entry, canonical isoform): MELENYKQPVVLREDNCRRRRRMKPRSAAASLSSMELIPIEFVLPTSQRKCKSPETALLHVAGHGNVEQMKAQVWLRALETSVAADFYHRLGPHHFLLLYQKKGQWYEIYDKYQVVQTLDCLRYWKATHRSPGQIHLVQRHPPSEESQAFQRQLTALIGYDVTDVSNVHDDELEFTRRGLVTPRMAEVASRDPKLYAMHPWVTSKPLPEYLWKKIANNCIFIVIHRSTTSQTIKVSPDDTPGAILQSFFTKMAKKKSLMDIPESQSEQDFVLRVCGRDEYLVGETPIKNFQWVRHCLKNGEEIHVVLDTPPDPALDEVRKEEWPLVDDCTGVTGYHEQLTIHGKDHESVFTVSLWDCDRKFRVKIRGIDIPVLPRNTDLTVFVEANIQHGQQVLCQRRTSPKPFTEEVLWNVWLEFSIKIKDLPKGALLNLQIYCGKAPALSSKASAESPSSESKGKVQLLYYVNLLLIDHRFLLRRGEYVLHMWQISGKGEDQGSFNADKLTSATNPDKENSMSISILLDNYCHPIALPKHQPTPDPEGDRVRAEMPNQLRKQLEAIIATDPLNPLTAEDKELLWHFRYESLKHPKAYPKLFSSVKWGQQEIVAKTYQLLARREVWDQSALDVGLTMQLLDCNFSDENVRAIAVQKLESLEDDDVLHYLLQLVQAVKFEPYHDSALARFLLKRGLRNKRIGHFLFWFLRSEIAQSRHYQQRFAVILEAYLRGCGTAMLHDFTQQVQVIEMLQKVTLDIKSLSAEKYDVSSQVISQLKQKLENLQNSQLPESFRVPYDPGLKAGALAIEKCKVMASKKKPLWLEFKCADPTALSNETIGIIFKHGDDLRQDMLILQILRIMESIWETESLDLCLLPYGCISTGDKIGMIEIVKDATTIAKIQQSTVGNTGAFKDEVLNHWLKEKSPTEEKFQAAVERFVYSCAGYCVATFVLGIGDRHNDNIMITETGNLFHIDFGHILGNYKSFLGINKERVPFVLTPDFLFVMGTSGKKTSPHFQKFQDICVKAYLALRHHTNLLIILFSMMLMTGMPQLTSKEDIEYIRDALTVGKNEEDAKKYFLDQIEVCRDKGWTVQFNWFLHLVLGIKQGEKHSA
structure (smiles),measurement,setting,value
C[C@H]1CC[C@@H](c2nc3cccc(Cl)c3c(=O)n2-c2cccnc2)N1c1nc(N)nc(N)c1C#N,IC50,SUD4,0.03 µM
same,Tmax,[1],3.33 h
same,Tmax,[2],0.83 h
same,Tmax,[3],1.2 h
same,AUC(0-t) at 24 h,[4],2930 ng·h/mL
same,half-life,[5],9.46 h
same,half-life,[6],2.4 h
same,CL/F,[7],13.2 mL/min/kg
same,clearance,[8],12.5 mL/min/kg
same,Vd,[9],1.66 L/kg
same,bioavailability,[10],57%
same,Activity,SU-DHL-6 [11],26.15%
same,Activity,SU-DHL-6 [12],15.65%
same,Activity,SU-DHL-6 [13],4.62%
same,Activity,DOHH-2 [14],43.53%
same,Activity,DOHH-2 [15],32.92%
same,Activity,DOHH-2 [16],20.03%
same,viability at 1.5 µM,SU-DHL-6 [17],74.7%
same,Activity,SU-DHL-6 [18],7.43%
same,viability at 1.5 µM,SU-DHL-6 [19],47.1%
same,Activity,SU-DHL-6 [20],18.1%
same,viability at 2 µM,DOHH-2 [21],60.6%
same,viability at 2 µM,DOHH-2 [22],23.5%
same,Activity,DOHH-2 [23],25.8%
same,Activity,DOHH-2 [24],1.88%
same,Activity,[25],Active
same,Ratio IC50,Homo sapiens,794
same,Selectivity ratio,[26],142
same,Selectivity ratio,[27],107
same,Activity,SU-DHL-6 [28],Dde
same,inhibition in vivo at 10 mg/kg,SU-DHL-6 [29],≤ 81.4%
same,Activity,SU-DHL-6 [30],Active
same,IC50,[31],16 µM
same,IC50,[32],84 µM

# — ChEMBL document CHEMBL5120922, “Discovery, Optimization, and Evaluation of Potent and Selective PI3Kδ-γ Dual Inhibitors for the Treatment of B-cell Malignancies” (J Med Chem, 2022)
